Measurements published in ChEMBL document CHEMBL5550160, “Leveraging a rationally designed veliparib-based anilide eliciting anti-leukemic effects for the design of pH-responsive polymer nanoformulation” (Eur J Med Chem, 2024).

What was measured:
[1] = molecular target: T1, Protein deacetylase HDAC6 (Homo sapiens) (UniProt Q9UBN7); assay: Inhibition of HDAC6 (unknown origin) using p53 residues 379 to 382 [RHKK(Ac)] as fluorogenic substrate assessed as residual activity at 4.57 x 10^-9M (reference value: 101.06%); conditions: dose 4.57 10^-9M
T1 sequence (whole entry): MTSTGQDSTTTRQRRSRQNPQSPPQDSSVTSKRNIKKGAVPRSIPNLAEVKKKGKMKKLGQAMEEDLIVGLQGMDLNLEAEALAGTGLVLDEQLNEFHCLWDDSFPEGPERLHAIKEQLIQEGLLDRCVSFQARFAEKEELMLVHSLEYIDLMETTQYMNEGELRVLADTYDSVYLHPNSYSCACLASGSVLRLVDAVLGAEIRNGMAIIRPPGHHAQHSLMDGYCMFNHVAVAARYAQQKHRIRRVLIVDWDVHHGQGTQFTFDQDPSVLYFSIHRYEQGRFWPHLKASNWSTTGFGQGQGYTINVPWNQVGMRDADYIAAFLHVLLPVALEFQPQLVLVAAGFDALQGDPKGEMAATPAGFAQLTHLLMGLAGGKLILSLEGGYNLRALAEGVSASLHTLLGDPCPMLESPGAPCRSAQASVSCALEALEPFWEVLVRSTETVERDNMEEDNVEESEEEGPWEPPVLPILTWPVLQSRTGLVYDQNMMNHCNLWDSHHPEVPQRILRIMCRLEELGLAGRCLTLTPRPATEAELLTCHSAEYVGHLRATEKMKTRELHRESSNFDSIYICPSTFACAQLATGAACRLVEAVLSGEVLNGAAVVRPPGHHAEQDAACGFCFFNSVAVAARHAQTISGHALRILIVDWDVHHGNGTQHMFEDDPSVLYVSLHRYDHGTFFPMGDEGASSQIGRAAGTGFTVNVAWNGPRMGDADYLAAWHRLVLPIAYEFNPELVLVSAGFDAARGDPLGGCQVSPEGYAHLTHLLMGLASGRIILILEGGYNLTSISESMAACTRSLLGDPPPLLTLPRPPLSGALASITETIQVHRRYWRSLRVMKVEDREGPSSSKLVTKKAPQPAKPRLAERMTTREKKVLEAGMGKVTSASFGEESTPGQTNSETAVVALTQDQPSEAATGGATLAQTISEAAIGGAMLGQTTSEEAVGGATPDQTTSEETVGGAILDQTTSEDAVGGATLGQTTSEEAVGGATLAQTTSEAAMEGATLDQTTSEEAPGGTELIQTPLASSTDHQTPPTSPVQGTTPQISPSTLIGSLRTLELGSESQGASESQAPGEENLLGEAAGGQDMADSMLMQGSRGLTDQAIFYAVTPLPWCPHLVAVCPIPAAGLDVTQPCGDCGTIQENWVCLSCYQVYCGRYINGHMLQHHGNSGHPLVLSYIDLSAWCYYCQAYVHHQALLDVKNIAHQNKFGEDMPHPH

HH = assay: cells; format: functional, cell-based; conditions: Homo sapiens
Description: Antiproliferative activity against human HH cells assessed as inhibition of cell growth by MTT assay

[2] = molecular target: T2, Polyamine deacetylase HDAC10 (Homo sapiens) (UniProt Q969S8); assay: Inhibition of HDAC10 (unknown origin) assessed as residual activity at 1 x 10^-5M (reference value: 101.54%); conditions: dose 1.0 10^-5M
T2 sequence (whole entry): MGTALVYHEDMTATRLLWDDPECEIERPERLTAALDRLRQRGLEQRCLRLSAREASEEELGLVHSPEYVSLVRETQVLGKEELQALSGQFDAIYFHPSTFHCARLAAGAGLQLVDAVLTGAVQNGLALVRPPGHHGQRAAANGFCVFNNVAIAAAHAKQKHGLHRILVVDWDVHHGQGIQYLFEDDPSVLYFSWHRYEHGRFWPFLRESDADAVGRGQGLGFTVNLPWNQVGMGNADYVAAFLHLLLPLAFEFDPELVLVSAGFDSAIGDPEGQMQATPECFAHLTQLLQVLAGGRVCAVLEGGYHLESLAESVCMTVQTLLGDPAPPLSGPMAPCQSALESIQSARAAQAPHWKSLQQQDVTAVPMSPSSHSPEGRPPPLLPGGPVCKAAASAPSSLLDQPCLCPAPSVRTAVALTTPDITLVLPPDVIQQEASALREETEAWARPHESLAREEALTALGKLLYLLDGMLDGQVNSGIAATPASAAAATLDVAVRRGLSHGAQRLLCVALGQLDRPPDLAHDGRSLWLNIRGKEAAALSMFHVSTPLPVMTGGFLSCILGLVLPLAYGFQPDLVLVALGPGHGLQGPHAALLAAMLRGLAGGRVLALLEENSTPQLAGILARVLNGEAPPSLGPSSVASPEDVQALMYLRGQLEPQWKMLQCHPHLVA

HL-60 = assay: Downregulation of HDAC2 protein expression in human HL-60 cells by Western blot analysis; format: functional, cell-based; conditions: dose 0.2-5 µM
[3] = molecular target: T1, Protein deacetylase HDAC6 (Homo sapiens); assay: Inhibition of HDAC6 (unknown origin) using p53 residues 379 to 382 [RHKK(Ac)] as fluorogenic substrate assessed as residual activity at 1.37 x 10^-8M (reference value: 101.06%); conditions: dose 1.37 10^-8M
[4] = molecular target: Histone deacetylase 9 (Homo sapiens) (UniProt Q9UKV0); assay: Inhibition of HDAC9 (unknown origin) assessed as residual activity at 3.33 x 10^-6M (reference value: 97.55%); conditions: dose 3.33 10^-6M
Sequence of Histone deacetylase 9 (Homo sapiens) (Q9UKV0 whole entry): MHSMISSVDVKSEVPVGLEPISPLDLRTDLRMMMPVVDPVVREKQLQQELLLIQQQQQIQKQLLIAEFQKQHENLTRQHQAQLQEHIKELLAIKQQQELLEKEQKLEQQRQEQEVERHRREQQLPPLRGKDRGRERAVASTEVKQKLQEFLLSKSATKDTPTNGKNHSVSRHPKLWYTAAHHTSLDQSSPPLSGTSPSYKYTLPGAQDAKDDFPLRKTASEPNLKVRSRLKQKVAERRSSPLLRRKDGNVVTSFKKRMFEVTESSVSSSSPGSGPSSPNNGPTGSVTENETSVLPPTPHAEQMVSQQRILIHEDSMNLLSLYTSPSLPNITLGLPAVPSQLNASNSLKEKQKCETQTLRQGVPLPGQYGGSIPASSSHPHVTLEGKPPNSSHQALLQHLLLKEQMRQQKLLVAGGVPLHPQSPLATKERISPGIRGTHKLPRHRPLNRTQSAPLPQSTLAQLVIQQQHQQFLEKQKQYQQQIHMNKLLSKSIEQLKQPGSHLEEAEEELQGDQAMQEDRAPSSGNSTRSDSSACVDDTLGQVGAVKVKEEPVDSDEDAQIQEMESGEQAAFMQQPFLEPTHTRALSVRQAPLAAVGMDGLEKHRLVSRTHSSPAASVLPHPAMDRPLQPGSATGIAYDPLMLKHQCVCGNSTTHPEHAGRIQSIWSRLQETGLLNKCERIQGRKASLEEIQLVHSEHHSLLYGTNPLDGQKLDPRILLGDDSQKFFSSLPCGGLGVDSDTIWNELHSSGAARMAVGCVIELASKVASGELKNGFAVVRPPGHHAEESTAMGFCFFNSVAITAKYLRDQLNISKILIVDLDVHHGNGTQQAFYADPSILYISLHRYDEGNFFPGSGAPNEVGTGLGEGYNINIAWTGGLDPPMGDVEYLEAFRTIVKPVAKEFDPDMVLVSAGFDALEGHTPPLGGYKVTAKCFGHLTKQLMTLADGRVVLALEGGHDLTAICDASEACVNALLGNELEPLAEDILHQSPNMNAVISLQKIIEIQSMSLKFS

- Activity [1]: 103%
- IC50 (HH): 1010 nM
- Activity [2]: 72.2%
- Activity [3]: 103%
- Activity [4]: 81%
Structure (SMILES): NC(=O)c1cccc2[nH]c(-c3ccc(NCc4ccc(C(=O)Nc5ccccc5N)cc4)cc3)nc12
- Activity (HL-60): Dose-Dependent Effect
